In patent US8426345B2, “Method of drug design” (Alchemia Limited, priority 2005, dated 2013):

Target: T1, Human SST5 somatostatin receptor (Homo sapiens, UniProt P35346)
T1 construct: expressed in transfected cells; host or cells: HEK-293 EBNA cells (membranes)
Assay: Filter plate radio-ligand binding assay for SST5 receptor ([125I]SST-14 displacement)
Details: for % SST5 radio-ligand binding displaced at conc 0.25: conc 0.25 μM; for % SST5 radio-ligand binding displaced at conc 1.0: conc 1.0 μM; for % SST5 radio-ligand binding displaced at conc 0.5: conc 0.5 μM; for % SST5 radio-ligand binding displaced at conc 10: conc 10 μM

[1] = compound conc 50 μM, 2P library
[2] = compound conc 250 μM, 2P library
[3] = compound conc 500 μM, 2P library

T1 sequence (P35346 whole entry): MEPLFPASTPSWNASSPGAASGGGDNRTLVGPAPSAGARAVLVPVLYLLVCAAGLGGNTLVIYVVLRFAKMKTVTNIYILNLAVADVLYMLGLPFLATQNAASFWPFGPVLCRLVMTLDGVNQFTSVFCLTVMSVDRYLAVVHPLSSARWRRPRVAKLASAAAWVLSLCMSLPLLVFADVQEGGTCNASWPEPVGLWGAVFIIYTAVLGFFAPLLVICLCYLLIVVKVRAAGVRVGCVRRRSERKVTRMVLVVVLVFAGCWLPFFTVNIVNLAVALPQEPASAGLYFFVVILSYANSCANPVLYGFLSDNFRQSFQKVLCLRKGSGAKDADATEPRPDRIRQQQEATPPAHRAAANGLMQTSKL

Compound: COC[C@H]1O[C@H](OCc2ccc3ccccc3c2)[C@H](NC(=O)CCCN)[C@@H](OC)[C@@H]1O [Compound 119]
- % SST5 radio-ligand binding displaced at conc 50 (conc 50 μM, 3P library): − (% SST5 radio-ligand binding displaced at cone (μM) −<40%)
- % SST5 radio-ligand binding displaced at conc 250 (conc 250 μM, 3P library): + (% SST5 radio-ligand binding displaced at cone (μM) 60>+>40%)
- % SST5 radio-ligand binding displaced at conc 500 (conc 500 μM, 3P library): ++ (% SST5 radio-ligand binding displaced at conc (μM) >60%)

Compound: NCCC(=O)NC1C(OCc2ccc3ccccc3c2)OC(COCc2ccc3ccccc3c2)C(O)C1OCc1ccccc1 (mixture of isomers) [Compound 76]
- % SST5 radio-ligand binding displaced at conc 0.25 (3P library): − (% SST5 radio-ligand binding displaced at cone (μM) −<40%)
- % SST5 radio-ligand binding displaced at conc 1.0 (3P library): ++ (% SST5 radio-ligand binding displaced at conc (μM) >60%)

Compound: COC[C@H]1O[C@H](OCc2ccc3ccccc3c2)[C@H](NC(=O)CCCN)[C@@H](OCc2nccc3ccccc23)[C@@H]1O [Compound 149]
- % SST5 radio-ligand binding displaced at conc 0.25 (3P library): − (% SST5 radio-ligand binding displaced at cone (μM) −<40%)
- % SST5 radio-ligand binding displaced at conc 1.0 (3P library): + (% SST5 radio-ligand binding displaced at cone (μM) 60>+>40%)

Compound: COC[C@H]1OC(OCc2ccc3ccccc3c2)[C@H](NC(=O)CCN)[C@@H](OCc2ccc(-c3ccccc3)cc2)[C@@H]1O (single isomer, unassigned) [Compound 91]
- % SST5 radio-ligand binding displaced at conc 0.25 (3P library): − (% SST5 radio-ligand binding displaced at cone (μM) −<40%)
- % SST5 radio-ligand binding displaced at conc 1.0 (3P library): − (% SST5 radio-ligand binding displaced at cone (μM) −<40%)

Compound: COCC1OC(SC)C(NC(=O)CN)C(OCc2ccc(Cl)cc2)C1O (centres unmarked) [Compound 31]
- % SST5 radio-ligand binding displaced at conc 50 [1]: − (% SST5 radio-ligand binding displaced at cone (μM) −<40%)
- % SST5 radio-ligand binding displaced at conc 250 [2]: − (% SST5 radio-ligand binding displaced at cone (μM) −<40%)
- % SST5 radio-ligand binding displaced at conc 500 [3]: + (% SST5 radio-ligand binding displaced at cone (μM) 60>+>40%)

Compound: NCCC(=O)NC1C(OCc2ccc3ccccc3c2)OC(COCc2ccc(Cl)cc2)C(O)C1OCc1ccc2ccccc2c1 (centres unmarked) [Compound 84]
- % SST5 radio-ligand binding displaced at conc 0.25 (3P library): − (% SST5 radio-ligand binding displaced at cone (μM) −<40%)
- % SST5 radio-ligand binding displaced at conc 1.0 (3P library): ++ (% SST5 radio-ligand binding displaced at conc (μM) >60%)

Compound: COC[C@H]1O[C@@H](SC)[C@H](NC(=O)CN)[C@@H](OCc2ccc(Cl)cc2)[C@@H]1O [Compound 9]
- % SST5 radio-ligand binding displaced at conc 50 [1]: − (% SST5 radio-ligand binding displaced at cone (μM) −<40%)
- % SST5 radio-ligand binding displaced at conc 250 [2]: − (% SST5 radio-ligand binding displaced at cone (μM) −<40%)
- % SST5 radio-ligand binding displaced at conc 500 [3]: − (% SST5 radio-ligand binding displaced at cone (μM) −<40%)

Compound: COC[C@H]1O[C@@H](SC)[C@H](NC(=O)CCN)[C@@H](OCc2ccc(Cl)cc2)[C@@H]1O [Compound 17]
- % SST5 radio-ligand binding displaced at conc 50 [1]: − (% SST5 radio-ligand binding displaced at cone (μM) −<40%)
- % SST5 radio-ligand binding displaced at conc 250 [2]: − (% SST5 radio-ligand binding displaced at cone (μM) −<40%)
- % SST5 radio-ligand binding displaced at conc 500 [3]: − (% SST5 radio-ligand binding displaced at cone (μM) −<40%)

Compound: CO[C@@H]1[C@H](O)[C@@H](COCc2ccc3ccccc3c2)O[C@@H](SC)[C@@H]1NC(=O)CCCN [Compound 42]
- % SST5 radio-ligand binding displaced at conc 50 [1]: − (% SST5 radio-ligand binding displaced at cone (μM) −<40%)
- % SST5 radio-ligand binding displaced at conc 250 [2]: − (% SST5 radio-ligand binding displaced at cone (μM) −<40%)
- % SST5 radio-ligand binding displaced at conc 500 [3]: + (% SST5 radio-ligand binding displaced at cone (μM) 60>+>40%)

Compound: CNCCCC(=O)N[C@H]1[C@@H](OCc2ccc3ccccc3c2)O[C@H](COC)[C@@H](O)[C@@H]1OCc1ccc2ccccc2c1 [Compound 139]
- % SST5 radio-ligand binding displaced at conc 0.25 (3P library): − (% SST5 radio-ligand binding displaced at cone (μM) −<40%)
- % SST5 radio-ligand binding displaced at conc 1.0 (3P library): + (% SST5 radio-ligand binding displaced at cone (μM) 60>+>40%)

Compound: COC[C@H]1O[C@H](OCc2ccc(Cl)cc2)[C@H](NC(=O)CN)[C@H](OC)[C@@H]1O [Compound 158]
- % SST5 radio-ligand binding displaced at conc 50 (conc 50 μM, 3P library): − (% SST5 radio-ligand binding displaced at cone (μM) −<40%)
- % SST5 radio-ligand binding displaced at conc 250 (conc 250 μM, 3P library): − (% SST5 radio-ligand binding displaced at cone (μM) −<40%)
- % SST5 radio-ligand binding displaced at conc 500 (conc 500 μM, 3P library): − (% SST5 radio-ligand binding displaced at cone (μM) −<40%)

Compound: NCCC(=O)NC1C(OCc2ccc3ccccc3c2)OC(COCc2ccc3ccccc3c2)C(O)C1OCc1ccc2ccccc2c1 (mixture of isomers) [Compound 73]
- % SST5 radio-ligand binding displaced at conc 0.25 (3P library): − (% SST5 radio-ligand binding displaced at cone (μM) −<40%)
- % SST5 radio-ligand binding displaced at conc 1.0 (3P library): + (% SST5 radio-ligand binding displaced at cone (μM) 60>+>40%)

Compound: COC1C(O)C(COCc2ccccc2)OC(OCc2ccc3ccccc3c2)C1NC(=O)CCN (mixture of isomers) [Compound 93]
- % SST5 radio-ligand binding displaced at conc 0.25 (3P library): − (% SST5 radio-ligand binding displaced at cone (μM) −<40%)
- % SST5 radio-ligand binding displaced at conc 1.0 (3P library): + (% SST5 radio-ligand binding displaced at cone (μM) 60>+>40%)

Compound: COC[C@H]1OC(OCc2ccc(Cl)cc2)[C@H](NC(=O)CN)[C@@H](OCc2ccccc2)[C@@H]1O (single isomer, unassigned) [Compound 168]
- % SST5 radio-ligand binding displaced at conc 0.25 (3P library): − (% SST5 radio-ligand binding displaced at cone (μM) −<40%)
- % SST5 radio-ligand binding displaced at conc 1.0 (3P library): − (% SST5 radio-ligand binding displaced at cone (μM) −<40%)

Compound: COC[C@H]1O[C@H](OCc2ccc3ccccc3c2)[C@H](NC(=O)CCCN)[C@@H](OCc2ccc(Cl)c(Cl)c2)[C@@H]1O [Compound 150]
- % SST5 radio-ligand binding displaced at conc 0.25 (3P library): ++ (% SST5 radio-ligand binding displaced at conc (μM) >60%)
- % SST5 radio-ligand binding displaced at conc 1.0 (3P library): ++ (% SST5 radio-ligand binding displaced at conc (μM) >60%)

Compound: COC[C@H]1O[C@H](OCc2ccc3ccccc3c2)[C@H](NC(=O)CCN)[C@@H](OCc2ccc(Cl)cc2Cl)[C@@H]1O [Compound 115]
- % SST5 radio-ligand binding displaced at conc 0.25 (3P library): + (% SST5 radio-ligand binding displaced at cone (μM) 60>+>40%)
- % SST5 radio-ligand binding displaced at conc 1.0 (3P library): ++ (% SST5 radio-ligand binding displaced at conc (μM) >60%)

Compound: COC[C@H]1O[C@H](OCc2ccc3ccccc3c2)[C@H](NC(=O)CCC(C)N)[C@@H](OCc2ccc3ccccc3c2)[C@@H]1O (some centres unmarked) [Compound 140]
- % SST5 radio-ligand binding displaced at conc 0.25 (3P library): ++ (% SST5 radio-ligand binding displaced at conc (μM) >60%)
- % SST5 radio-ligand binding displaced at conc 1.0 (3P library): ++ (% SST5 radio-ligand binding displaced at conc (μM) >60%)

Compound: COC1C(O)C(COCc2ccc3ccccc3c2)OC(OCc2ccc3ccccc3c2)C1NC(=O)CCCN (mixture of isomers) [Compound 122]
- % SST5 radio-ligand binding displaced at conc 0.5 (3P library): ++ (% SST5 radio-ligand binding displaced at conc (μM) >60%)
- % SST5 radio-ligand binding displaced at conc 10 (3P library): ++ (% SST5 radio-ligand binding displaced at conc (μM) >60%)

Compound: COC[C@H]1O[C@H](OCc2ccc3ccccc3c2)[C@H](NC(=O)CCCN)[C@@H](OCc2ccc(Oc3ccccc3)cc2)[C@@H]1O [Compound 155]
- % SST5 radio-ligand binding displaced at conc 0.25 (3P library): ++ (% SST5 radio-ligand binding displaced at conc (μM) >60%)
- % SST5 radio-ligand binding displaced at conc 1.0 (3P library): ++ (% SST5 radio-ligand binding displaced at conc (μM) >60%)

Compound: COC[C@H]1O[C@H](OCc2ccc(Cl)cc2)[C@H](NC(=O)CN)[C@H](OC)[C@@H]1O [Compound 33]
- % SST5 radio-ligand binding displaced at conc 50 [1]: − (% SST5 radio-ligand binding displaced at cone (μM) −<40%)
- % SST5 radio-ligand binding displaced at conc 250 [2]: − (% SST5 radio-ligand binding displaced at cone (μM) −<40%)
- % SST5 radio-ligand binding displaced at conc 500 [3]: − (% SST5 radio-ligand binding displaced at cone (μM) −<40%)

Compound: COCC1OC(OCc2ccc(Cl)cc2)C(NC(=O)CN)C(OCc2ccc(-c3ccccc3)cc2)C1O (mixture of isomers) [Compound 173]
- % SST5 radio-ligand binding displaced at conc 0.25 (3P library): − (% SST5 radio-ligand binding displaced at cone (μM) −<40%)
- % SST5 radio-ligand binding displaced at conc 1.0 (3P library): − (% SST5 radio-ligand binding displaced at cone (μM) −<40%)

Compound: COC[C@H]1OC(OCc2ccc3ccccc3c2)[C@H](NC(=O)CCN)[C@@H](OCc2ccc(Cl)cc2)[C@@H]1O (single isomer, unassigned) [Compound 90]
- % SST5 radio-ligand binding displaced at conc 0.25 (3P library): + (% SST5 radio-ligand binding displaced at cone (μM) 60>+>40%)
- % SST5 radio-ligand binding displaced at conc 1.0 (3P library): ++ (% SST5 radio-ligand binding displaced at conc (μM) >60%)

Compound: COC[C@H]1O[C@@H](SC)[C@H](NC(=O)CCN)[C@H](OCc2ccc3ccccc3c2)[C@@H]1O [Compound 57]
- % SST5 radio-ligand binding displaced at conc 50 [1]: − (% SST5 radio-ligand binding displaced at cone (μM) −<40%)
- % SST5 radio-ligand binding displaced at conc 250 [2]: − (% SST5 radio-ligand binding displaced at cone (μM) −<40%)
- % SST5 radio-ligand binding displaced at conc 500 [3]: − (% SST5 radio-ligand binding displaced at cone (μM) −<40%)

Compound: COCC1OC(OCc2ccc3ccccc3c2)C(NC(=O)CCCN)C(OCc2ccc(Cl)cc2)C1O (mixture of isomers) [Compound 127]
- % SST5 radio-ligand binding displaced at conc 0.001 (conc 0.001 μM, 3P library): − (% SST5 radio-ligand binding displaced at cone (μM) −<40%)
- % SST5 radio-ligand binding displaced at conc 0.10 (conc 0.10 μM, 3P library): − (% SST5 radio-ligand binding displaced at cone (μM) −<40%)
- % SST5 radio-ligand binding displaced at conc 0.5 (3P library): ++ (% SST5 radio-ligand binding displaced at conc (μM) >60%)
- % SST5 radio-ligand binding displaced at conc 1.0 (3P library): ++ (% SST5 radio-ligand binding displaced at conc (μM) >60%)
- % SST5 radio-ligand binding displaced at conc 10 (3P library): ++ (% SST5 radio-ligand binding displaced at conc (μM) >60%)

Compound: CO[C@H]1[C@H](O)[C@@H](COCc2ccc(Cl)cc2)OC(OCc2ccc3ccccc3c2)[C@@H]1NC(=O)CCN (single isomer, unassigned) [Compound 95]
- % SST5 radio-ligand binding displaced at conc 0.25 (3P library): − (% SST5 radio-ligand binding displaced at cone (μM) −<40%)
- % SST5 radio-ligand binding displaced at conc 1.0 (3P library): − (% SST5 radio-ligand binding displaced at cone (μM) −<40%)

Compound: NCCC(=O)NC1C(OCc2ccc3ccccc3c2)OC(COCc2ccc3ccccc3c2)C(O)C1OCc1ccc2ccccc2c1 (centres unmarked) [Compound 79]
- % SST5 radio-ligand binding displaced at conc 0.25 (3P library): − (% SST5 radio-ligand binding displaced at cone (μM) −<40%)
- % SST5 radio-ligand binding displaced at conc 1.0 (3P library): ++ (% SST5 radio-ligand binding displaced at conc (μM) >60%)

Compound: COC[C@H]1O[C@H](OCc2ccc3ccccc3c2)[C@H](NC(=O)CCCN(C)C)[C@@H](OCc2ccc3ccccc3c2)[C@@H]1O [Compound 141]
- % SST5 radio-ligand binding displaced at conc 0.25 (3P library): − (% SST5 radio-ligand binding displaced at cone (μM) −<40%)
- % SST5 radio-ligand binding displaced at conc 1.0 (3P library): − (% SST5 radio-ligand binding displaced at cone (μM) −<40%)
